Where two headings read alike, the source gives them in different places.
Key:
Intracellular ATP levels = format: cell-based; details: read-out: ATP TC50; for CC50 at 72 h: SK-MEL28, 72 HR, run #2
Protocol: Intracellular ATP Levels: Cellular Adenosine triphosphate (ATP) was determined with an assay based on a reaction between ATP+D-luciferin+oxygen catalyzed by luciferase to yield Oxyluciferin+AMP+PPi+CO2+light. The emitted light is proportional to the amount of ATP present. […] In addition, a unique cell lysis reagent inhibits endogenous ATPases and therefore stabilizes cellular ATP by preventing its degradation to ADP. ATP is present in all-living cells and declines rapidly upon cell death. In addition, this assay in combination with the MTT assay provides an indicator of mitochondrial activity and energy status of the cell.
Plates were analyzed immediately or stored at −20° C. until needed. On the day of analysis, the plates were thawed and calibration curve prepared with ATP in the same liquid matrix as samples. ATP was quantified by adding ATP substrate solution and then reading luminescence on a Packard Fusion Luminescence or equivalent plate reader.
Intracellular ATP Levels: ATP levels in treated cells could be determined by using the regression coefficients obtained from the linear regression analysis of the calibration curve. Thus, values could be expressed as pmoles ATP/million cells. Background corrected luminescence was used to determine percent change relative to controls by dividing treated values by control values and multiplying by 100.
Dosing solutions were prepared in complete culture medium.

NRK cells = test: Predicted Ctox from Tox-Panel; format: cell-based, rat
Protocol: Studies such as these indicate that a preferred concentration for setting Ctox is the highest concentration at which there is no observed effect on any of the indicators being measured in the cluster analysis, especially a 24-hour cluster analysis. […] It will be apparent that 24 hour assays are more time-effective, and consequently, the 24 hour NOEL/Ctox represents a preferred data point to select as Ctox in a CATS assay. It will also be apparent that, with further time studies, it may be possible to select an equally suitable Ctox at other CATS assay time points (e.g., between 24 and 72 hours, or less than 24 hours).
In certain embodiments, the predicting comprises performing concentration response analyses of measurements from at least three separate assays that are employed in the cluster analysis. For example, in the cell health cluster, such predicting will involve monitoring the concentration response effect of the compound on a first health indicator which monitors cellular replication, a second cell health indicator which monitors mitochondrial function, and a third cell health indicator which monitors membrane integrity. Of course, it is understood that fourth, fifth, sixth or more cell health indicators also may be employed. From these concentration response analyses, the highest concentration of the chemical compound at which a measurable toxic effect of the chemical compound is not observable, i.e. NOEL, is determined and the Ctox is identified as the concentration that correlates to the NOEL. In choosing the concentrations of the compound for analysis, one of skill in the art should devise a dose response regimen which is selected to provide an indication of cell health at concentrations of at least two concentration values higher than the Ctox concentration.
The third experiment was done to evaluate the specificity and selectivity of the test compound in another non-tumor cell that was derived from normal rat kidney tissue. In this experiment the test compound has no effect on cell number of acute cell death up to the 500 dilution after 6 and 24 hr of exposure (FIG. 76C and 77C). Significant effects were observed on mitochondrial markers at dilutions that dropped pH to 3.7. The bar graph in FIG. 82 summarizes these effects. […] In contrast the rat tumor cell line was sensitive to the test compound and cell death occurred at the 500 dilution and could not be attributed to low pH.

SK-MEL28 cells = test: Membrane lipid peroxidation (8-isoprostane ELISA)
Protocol: Lipid Peroxidation Measured as 8-Isoprostane (8-ISO): 8-ISO levels were determined using an ELISA. 8-ISO is a member of a family of eicosanoids produced non-enzymatically by random oxidation of tissue phospholipids by oxygen radicals. Therefore, an increase in 8-ISO is an indirect measure of increased lipid peroxidation (Vacchiano and Tempel, 1994). At the end of the exposure period, plates were either analyzed immediately or stored at −80° C. until needed for analysis. Color development, which is […] to the amount of 8-ISO present in the sample, was read on a Packard Fusion or equivalent plate reader at 415 nm.
Lipid Peroxidation Measured as 8-Isoprostane (8-ISO): Background absorbance produced from Ellman's reagent is subtracted from all wells. Non-specific binding is subtracted from the maximum binding wells to give a corrected maximum binding expressed as Bo. The percent of bound (B) relative to maximum binding capacity (Bo) for all unknown samples and for standards was determined an expressed as (% B/Bo). The % B/Bo for standards was plotted against the log of 8-ISO added to yield the final standard curve. This curve was used to convert % B/Bo to pg 8-ISO/mL of sample.
The test compound consisted of two parts mixed in a constant ratio of 5:1. The final test mixture consisted of Test mix 1 and Test mix 2, which were received as frozen solutions. The test mixture was tested in a ratio of 5:1 COMP A in five different cell types which included the following: SK-MEL28, human hepatocytes, HUVEC, C32, and NHEM cells. Cells were seeded into 96-well plates and cultured in medium containing 10% bovine serum. […]
Experimental Protocol: The test compounds were shipped on dry ice for testing. The compounds were stored frozen at −80° C. until needed. Dosing solutions were prepared in complete culture medium. SK-MEL28, human hepatocytes, HUVEC, C32, and NHEM cells were used as the test systems. Cells were seeded into 96-well plates and allowed to equilibrate for approximately 48 hr. Following the equilibration period the cells were exposed to the test compound mix at concentrations of COMP A (μg/mL)=(250:50), (125:25), (25:12.5), (12.5:2.5), (2.5:1.25), (1.25:0.25), and (0.25:0.05). […] Following the exposure period, the cells or their supernatant (culture medium) were analyzed for changes in cell proliferation, membrane leakage, mitochondrial function, oxidative stress, and apoptosis. The resultant exposure concentration response curves were graphed and analyzed for determining the concentration that produced a half maximal response or TC50.

[1] = SK-MEL28, 24 HR, COMP A (LOW) / controls #2
[2] = SK-MEL28, 72 HR, COMP A (LOW) / controls #2

Compound	CC50 at 24 h (Intracellular ATP levels; human, HUVEC) [µM]	CC50 at 24 h (Intracellular ATP levels; human, SK-MEL28 cells, SK-MEL28, 24 HR) [µM]	CC50 at 72 h (Intracellular ATP levels; human, SK-MEL28 cells) [µM]	Predicted Ctox (NRK cells; 6 HR) [µM]	Predicted Ctox (NRK cells; 24 HR) [µM]	Membrane Lipid Peroxidation (SK-MEL28 cells; SK-MEL28, 24 HR)	Membrane Lipid Peroxidation (SK-MEL28 cells; [1])	Membrane Lipid Peroxidation (SK-MEL28 cells; [2])	CC50 at 24 h (Intracellular ATP levels; human hepatocytes) [µM]
CC[C@@]1(O)C(=O)OCc2c1cc1n(c2=O)Cc2cc3ccccc3nc2-1 [CAMPTOTHECIN, Camptothecin]	40	293	0.1	0.1	0.1	0	0	1 (1 = Modest increase with maximum values ≦15 pg/mL)	
C=C(C)[C@H]1Cc2c(ccc3c2O[C@@H]2COc4cc(OC)c(OC)cc4[C@@H]2C3=O)O1 [ROTENONE, Rotenone]			2	1	1	3 (3 = Concentration related increase with a maximum value ≧30 pg/mL)	2 (2 = Concentration related increase with maximum values ≧15 pg/mL)	3 (3 = Concentration related increase with a maximum value ≧30 pg/mL)	6

Reference: patent US7615361B2, “Toxicity screening methods” (Ceetox, Inc., priority 2006, dated 2009)
